Measurements taken from ChEMBL document CHEMBL1909046, “DrugMatrix in vitro pharmacology data”.

Columns and labels:
[1] = target: T1, Alpha-1D adrenergic receptor (Homo sapiens, UniProt P25100); type: cell membranes, HEK293, Membrane; conditions: hek293; note: in other assays of this panel Not Active means under 50% inhibition at 10 µM
T1 sequence (P25100 whole entry): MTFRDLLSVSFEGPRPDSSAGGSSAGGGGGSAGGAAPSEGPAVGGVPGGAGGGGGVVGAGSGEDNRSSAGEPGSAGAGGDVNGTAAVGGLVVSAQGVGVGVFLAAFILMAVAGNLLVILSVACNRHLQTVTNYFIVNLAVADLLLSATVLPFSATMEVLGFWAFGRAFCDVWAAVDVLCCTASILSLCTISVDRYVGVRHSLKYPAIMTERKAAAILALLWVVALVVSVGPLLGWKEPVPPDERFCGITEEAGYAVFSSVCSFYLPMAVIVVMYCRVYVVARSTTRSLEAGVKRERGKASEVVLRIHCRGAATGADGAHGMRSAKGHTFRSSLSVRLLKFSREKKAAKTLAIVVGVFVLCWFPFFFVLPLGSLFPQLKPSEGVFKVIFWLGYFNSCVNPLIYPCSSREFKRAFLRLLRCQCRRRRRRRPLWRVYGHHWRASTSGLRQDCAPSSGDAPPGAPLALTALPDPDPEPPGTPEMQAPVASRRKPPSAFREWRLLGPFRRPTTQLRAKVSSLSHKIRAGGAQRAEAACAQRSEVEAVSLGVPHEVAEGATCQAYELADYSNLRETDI

[2] = target: Beta-1 adrenergic receptor (Homo sapiens, UniProt P08588); assay: DRUGMATRIX: Adrenergic beta1 radioligand binding (ligand: [125I] Cyanopindolol); type: cell membranes, CHO-K1, Membrane; conditions: cho-k1; Not Active = under 50% inhibition at 10 µM
[3] = target: Beta-3 adrenergic receptor (Homo sapiens, UniProt P13945); assay: DRUGMATRIX: Adrenergic beta3 radioligand binding (ligand: [125I] Cyanopindolol); type: cell membranes, HEK293, Membrane; conditions: hek293; Not Active = under 50% inhibition at 10 µM
[4] = target: Aldo-keto reductase family 1 member B1 (Rattus norvegicus, UniProt P07943); type: tissue-based, Lens of camera-type eye;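 note: inhibition of aldose reductase enzyme activity, measured with DL-glyceraldehyde as the substrate; in other assays of this panel Not Active means under 50% inhibition at 10 µM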
[5] = DRUGMATRIX: Calcium Channel Type L, Benzothiazepine radioligand binding (ligand: [3H] Diltiazem); type: cell membranes, Rattus norvegicus, Wistar, Brain, Membrane; conditions: Not Active = under 50% inhibition at 10 µM
[6] = DRUGMATRIX: Serotonin (5-Hydroxytryptamine) 5-HT3 radioligand binding (ligand: [3H] GR-65630); type: cell membranes, Membrane; conditions: hek293; Not Active = under 50% inhibition at 10 µM
[7] = target: 5-hydroxytryptamine receptor 4 (Cavia porcellus, UniProt O70528); type: cell membranes, Dunkin-Hartley, Striatum, Membrane; note: in other assays of this panel Not Active means under 50% inhibition at 10 µM
[8] = target: Sigma non-opioid intracellular receptor 1 (Homo sapiens, UniProt Q99720); assay: DRUGMATRIX: Sigma1 radioligand binding (ligand: [3H] Haloperidol); type: cell membranes, Jurkat, Membrane; conditions: Not Active = under 50% inhibition at 10 µM
[9] = DRUGMATRIX: Tumor Necrosis Factor (TNF), Non-Selective radioligand binding (ligand: [125I] TNF-alpha); type: cell membranes, Membrane; conditions: u-937; Not Active = under 50% inhibition at 10 µM
[10] = DRUGMATRIX: Calcium Channel Type L, Phenylalkylamine radioligand binding (ligand: [3H] (-)-Desmethoxyverapamil (D-888)); type: cell membranes, Rattus norvegicus, Wistar, Brain, Membrane; conditions: Not Active = under 50% inhibition at 10 µM
[11] = target: T2, Cholecystokinin receptor type A (Homo sapiens, UniProt P32238); type: cell membranes, Membrane; conditions: 1321-n1; note: in other assays of this panel Not Active means under 50% inhibition at 10 µM
T2 sequence (P32238 whole entry): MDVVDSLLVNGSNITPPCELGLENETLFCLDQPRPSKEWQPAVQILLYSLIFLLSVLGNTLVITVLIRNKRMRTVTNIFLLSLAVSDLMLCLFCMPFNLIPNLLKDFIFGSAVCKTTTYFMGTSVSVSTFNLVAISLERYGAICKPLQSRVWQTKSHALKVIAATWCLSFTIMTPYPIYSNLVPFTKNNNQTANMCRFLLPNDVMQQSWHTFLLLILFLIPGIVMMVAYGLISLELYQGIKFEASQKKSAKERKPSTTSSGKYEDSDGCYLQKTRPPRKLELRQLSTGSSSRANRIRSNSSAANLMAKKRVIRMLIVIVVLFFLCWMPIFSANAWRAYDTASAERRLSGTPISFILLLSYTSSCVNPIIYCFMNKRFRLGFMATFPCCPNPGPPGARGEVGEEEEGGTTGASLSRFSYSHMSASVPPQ

[12] = DRUGMATRIX: GABAA, Muscimol, Central radioligand binding (ligand: [3H] Muscimol); type: cell membranes, Rattus norvegicus, Wistar, Brain, Membrane; conditions: Not Active = under 50% inhibition at 10 µM
[13] = DRUGMATRIX: GABAA, Flunitrazepam, Central radioligand binding (ligand: [3H] Flunitrazepam); type: cell membranes, Rattus norvegicus, Wistar, Brain, Membrane; conditions: Not Active = under 50% inhibition at 10 µM
[14] = DRUGMATRIX: Imidazoline I2, Central radioligand binding (ligand: [3H] Idazoxan); type: cell membranes, Rattus norvegicus, Wistar, Cerebral cortex, Membrane; conditions: Not Active = under 50% inhibition at 10 µM
Insulin receptor = Insulin receptor (Rattus norvegicus, UniProt P15127); type: cell membranes, Wistar, Liver, Membrane; note: in other assays of this panel Not Active means under 50% inhibition at 10 µM
Melanocortin receptor 4 = Melanocortin receptor 4 (Homo sapiens, UniProt P32245); type: cell membranes, Membrane; conditions: hek293; note: in other assays of this panel Not Active means under 50% inhibition at 10 µM
[15] = target: Kappa-type opioid receptor (Homo sapiens, UniProt P41145); assay: DRUGMATRIX: Opiate kappa (OP2, KOP) radioligand binding (ligand: [3H] Diprenorphine); type: cell membranes, HEK293, Membrane; conditions: hek293; Not Active = under 50% inhibition at 10 µM
Mu-type opioid receptor = Mu-type opioid receptor (Homo sapiens, UniProt P35372); assay: DRUGMATRIX: Opiate mu (OP3, MOP) radioligand binding (ligand: [3H] Diprenorphine); type: cell membranes, CHO-K1, Membrane; conditions: cho-k1; Not Active = under 50% inhibition at 10 µM
[16] = target: T3, 5-hydroxytryptamine receptor 1A (Rattus norvegicus, UniProt P19327); type: cell membranes, CHO-K1, Membrane; conditions: cho-k1; note: in other assays of this panel Not Active means under 50% inhibition at 10 µM
T3 sequence (P19327 whole entry): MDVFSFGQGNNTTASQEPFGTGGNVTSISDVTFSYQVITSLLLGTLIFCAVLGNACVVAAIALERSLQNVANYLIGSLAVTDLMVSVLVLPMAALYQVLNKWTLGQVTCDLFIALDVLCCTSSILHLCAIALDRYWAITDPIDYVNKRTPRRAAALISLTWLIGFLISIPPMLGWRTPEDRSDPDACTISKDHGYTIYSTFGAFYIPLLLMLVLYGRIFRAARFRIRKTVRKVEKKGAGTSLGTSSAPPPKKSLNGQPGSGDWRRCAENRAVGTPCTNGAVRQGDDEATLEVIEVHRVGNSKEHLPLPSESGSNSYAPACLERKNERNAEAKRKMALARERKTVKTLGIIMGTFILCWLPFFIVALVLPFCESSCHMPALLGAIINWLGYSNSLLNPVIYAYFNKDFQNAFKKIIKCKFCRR

[17] = target: 5-hydroxytryptamine receptor 1B (Rattus norvegicus, UniProt P28564); type: cell membranes, Wistar, Cerebral cortex, Membrane; note: in other assays of this panel Not Active means under 50% inhibition at 10 µM
Sequence of 5-hydroxytryptamine receptor 1B (P28564 whole entry): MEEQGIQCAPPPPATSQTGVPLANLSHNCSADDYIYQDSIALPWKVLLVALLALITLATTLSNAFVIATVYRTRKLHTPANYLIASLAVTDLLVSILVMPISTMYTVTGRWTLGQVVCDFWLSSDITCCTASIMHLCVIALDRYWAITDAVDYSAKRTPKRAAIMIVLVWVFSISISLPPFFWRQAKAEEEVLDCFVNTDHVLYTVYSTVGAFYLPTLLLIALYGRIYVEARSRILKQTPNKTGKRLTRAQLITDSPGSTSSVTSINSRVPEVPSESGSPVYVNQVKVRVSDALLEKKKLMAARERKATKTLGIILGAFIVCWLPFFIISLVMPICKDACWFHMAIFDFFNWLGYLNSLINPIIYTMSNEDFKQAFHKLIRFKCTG

Sequence of Sigma non-opioid intracellular receptor 1 (Q99720 whole entry): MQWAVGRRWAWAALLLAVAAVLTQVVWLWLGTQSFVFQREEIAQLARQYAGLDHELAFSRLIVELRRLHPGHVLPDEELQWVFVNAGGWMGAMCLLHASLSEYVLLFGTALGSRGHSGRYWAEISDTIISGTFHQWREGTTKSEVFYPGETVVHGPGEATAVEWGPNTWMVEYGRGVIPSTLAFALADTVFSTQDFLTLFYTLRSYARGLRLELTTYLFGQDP
Sequence of Kappa-type opioid receptor (P41145 whole entry): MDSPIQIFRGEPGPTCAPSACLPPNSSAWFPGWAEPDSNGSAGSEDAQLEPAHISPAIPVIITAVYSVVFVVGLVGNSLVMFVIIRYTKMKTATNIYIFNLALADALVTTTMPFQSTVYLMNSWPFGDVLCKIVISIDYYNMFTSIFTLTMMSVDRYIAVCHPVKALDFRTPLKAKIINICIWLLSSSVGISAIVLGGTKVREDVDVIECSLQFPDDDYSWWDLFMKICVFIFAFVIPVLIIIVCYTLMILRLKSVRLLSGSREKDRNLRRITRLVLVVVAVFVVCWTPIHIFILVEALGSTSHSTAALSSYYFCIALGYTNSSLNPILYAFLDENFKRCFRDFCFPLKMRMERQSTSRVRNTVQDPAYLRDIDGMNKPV
Sequence of Beta-1 adrenergic receptor (P08588 whole entry): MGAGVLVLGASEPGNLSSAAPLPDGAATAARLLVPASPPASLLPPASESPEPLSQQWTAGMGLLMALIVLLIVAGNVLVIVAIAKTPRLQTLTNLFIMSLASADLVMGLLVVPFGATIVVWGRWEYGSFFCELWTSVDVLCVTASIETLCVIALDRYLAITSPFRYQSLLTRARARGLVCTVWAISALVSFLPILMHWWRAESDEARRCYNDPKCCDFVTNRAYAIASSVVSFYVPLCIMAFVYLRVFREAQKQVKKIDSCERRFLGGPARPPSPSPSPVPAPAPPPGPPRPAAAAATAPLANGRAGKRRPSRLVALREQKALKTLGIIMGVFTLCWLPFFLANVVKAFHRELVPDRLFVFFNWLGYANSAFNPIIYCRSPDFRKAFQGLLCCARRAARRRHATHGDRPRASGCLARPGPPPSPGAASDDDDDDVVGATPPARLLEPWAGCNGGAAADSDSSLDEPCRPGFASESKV
Sequence of Insulin receptor (P15127 27-759 limits assumed): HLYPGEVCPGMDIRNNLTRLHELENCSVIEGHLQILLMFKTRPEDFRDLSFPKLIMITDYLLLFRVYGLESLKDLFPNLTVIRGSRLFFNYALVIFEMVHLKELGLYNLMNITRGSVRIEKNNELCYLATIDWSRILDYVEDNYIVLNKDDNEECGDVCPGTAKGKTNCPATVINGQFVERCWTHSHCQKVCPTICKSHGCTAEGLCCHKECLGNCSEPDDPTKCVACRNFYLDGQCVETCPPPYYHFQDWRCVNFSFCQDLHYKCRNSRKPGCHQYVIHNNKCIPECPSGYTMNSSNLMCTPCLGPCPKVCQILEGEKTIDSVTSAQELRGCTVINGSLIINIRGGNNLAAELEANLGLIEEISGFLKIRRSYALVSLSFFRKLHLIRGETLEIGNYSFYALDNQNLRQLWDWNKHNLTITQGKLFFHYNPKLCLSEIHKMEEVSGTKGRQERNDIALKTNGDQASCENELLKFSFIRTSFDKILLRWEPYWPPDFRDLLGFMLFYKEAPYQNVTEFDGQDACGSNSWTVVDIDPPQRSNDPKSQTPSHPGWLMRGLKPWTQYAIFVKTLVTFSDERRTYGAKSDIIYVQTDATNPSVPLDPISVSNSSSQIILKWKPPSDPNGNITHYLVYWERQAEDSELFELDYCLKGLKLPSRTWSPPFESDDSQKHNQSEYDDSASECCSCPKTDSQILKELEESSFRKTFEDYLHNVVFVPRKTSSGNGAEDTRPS
Sequence of Insulin receptor (P15127 764-1383 limits assumed): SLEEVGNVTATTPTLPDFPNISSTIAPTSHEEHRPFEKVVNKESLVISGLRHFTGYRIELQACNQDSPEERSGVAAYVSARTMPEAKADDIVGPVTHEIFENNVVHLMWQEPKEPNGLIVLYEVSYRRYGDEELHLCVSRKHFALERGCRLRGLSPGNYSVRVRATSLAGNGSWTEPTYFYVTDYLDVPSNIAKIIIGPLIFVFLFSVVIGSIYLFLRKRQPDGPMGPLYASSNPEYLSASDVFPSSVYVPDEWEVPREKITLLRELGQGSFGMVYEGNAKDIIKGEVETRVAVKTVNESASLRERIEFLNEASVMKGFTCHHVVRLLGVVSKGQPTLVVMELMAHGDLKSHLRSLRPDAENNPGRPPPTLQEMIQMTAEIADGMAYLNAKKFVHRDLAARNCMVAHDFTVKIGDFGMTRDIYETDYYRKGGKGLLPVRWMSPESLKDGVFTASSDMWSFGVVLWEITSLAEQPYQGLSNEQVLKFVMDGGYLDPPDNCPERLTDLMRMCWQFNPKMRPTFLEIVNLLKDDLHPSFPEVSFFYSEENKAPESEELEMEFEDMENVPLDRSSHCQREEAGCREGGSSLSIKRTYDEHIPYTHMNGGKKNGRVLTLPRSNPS
Sequence of Mu-type opioid receptor (P35372 whole entry): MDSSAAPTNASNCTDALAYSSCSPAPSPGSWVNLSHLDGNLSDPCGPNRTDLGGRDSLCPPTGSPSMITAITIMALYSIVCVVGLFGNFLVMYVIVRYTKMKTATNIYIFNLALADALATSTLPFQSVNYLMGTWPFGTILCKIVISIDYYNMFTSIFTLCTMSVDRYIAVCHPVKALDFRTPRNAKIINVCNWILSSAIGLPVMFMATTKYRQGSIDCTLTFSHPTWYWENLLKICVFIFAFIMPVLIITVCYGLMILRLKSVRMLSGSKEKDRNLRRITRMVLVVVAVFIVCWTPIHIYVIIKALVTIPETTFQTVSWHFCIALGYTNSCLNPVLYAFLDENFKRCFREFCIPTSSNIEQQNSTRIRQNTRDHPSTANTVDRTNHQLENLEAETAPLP
Sequence of Melanocortin receptor 4 (P32245 whole entry): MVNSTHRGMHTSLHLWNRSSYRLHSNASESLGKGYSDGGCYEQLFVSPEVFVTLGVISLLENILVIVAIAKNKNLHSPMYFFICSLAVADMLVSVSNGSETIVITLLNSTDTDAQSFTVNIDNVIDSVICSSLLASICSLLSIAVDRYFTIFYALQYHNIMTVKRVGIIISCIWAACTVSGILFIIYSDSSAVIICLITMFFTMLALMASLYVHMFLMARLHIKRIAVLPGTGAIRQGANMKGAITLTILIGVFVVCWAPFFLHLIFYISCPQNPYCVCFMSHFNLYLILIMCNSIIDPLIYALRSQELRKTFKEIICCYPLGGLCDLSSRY
Sequence of Beta-3 adrenergic receptor (P13945 whole entry): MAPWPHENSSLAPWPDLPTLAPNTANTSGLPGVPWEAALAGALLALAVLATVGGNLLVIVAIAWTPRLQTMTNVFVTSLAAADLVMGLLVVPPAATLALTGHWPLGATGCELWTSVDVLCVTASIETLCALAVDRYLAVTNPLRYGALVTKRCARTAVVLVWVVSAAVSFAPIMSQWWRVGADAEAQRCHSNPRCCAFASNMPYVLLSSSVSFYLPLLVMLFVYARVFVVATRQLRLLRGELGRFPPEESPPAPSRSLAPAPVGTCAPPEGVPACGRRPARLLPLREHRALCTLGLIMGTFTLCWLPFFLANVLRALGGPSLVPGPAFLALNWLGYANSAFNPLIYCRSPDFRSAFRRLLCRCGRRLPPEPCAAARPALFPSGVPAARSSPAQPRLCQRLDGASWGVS
Sequence of 5-hydroxytryptamine receptor 4 (O70528 whole entry): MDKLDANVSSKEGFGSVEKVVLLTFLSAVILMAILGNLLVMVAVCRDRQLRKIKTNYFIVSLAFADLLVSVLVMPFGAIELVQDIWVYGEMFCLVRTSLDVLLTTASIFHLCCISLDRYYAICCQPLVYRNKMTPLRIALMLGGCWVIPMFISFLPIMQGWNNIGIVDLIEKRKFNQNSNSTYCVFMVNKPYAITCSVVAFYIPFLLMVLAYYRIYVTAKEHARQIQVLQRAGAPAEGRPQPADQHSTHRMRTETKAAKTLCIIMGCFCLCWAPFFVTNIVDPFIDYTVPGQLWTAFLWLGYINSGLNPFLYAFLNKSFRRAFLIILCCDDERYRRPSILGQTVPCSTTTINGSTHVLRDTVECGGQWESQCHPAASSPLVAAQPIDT

CN[C@H](CC(C)C)C(=O)N[C@H]1C(=O)N[C@@H](CC(N)=O)C(=O)N[C@H]2C(=O)N[C@H]3C(=O)N[C@H](C(=O)N[C@H](C(=O)O)c4cc(O)cc(O)c4-c4cc3ccc4O)[C@H](O)c3ccc(c(Cl)c3)Oc3cc2cc(c3O[C@@H]2O[C@H](CO)[C@@H](O)[C@H](O)[C@H]2O[C@H]2C[C@](C)(N)[C@H](O)[C@H](C)O2)Oc2ccc(cc2Cl)[C@H]1O [VANCOMYCIN]
IC50 [1]: Not Active
IC50 [2]: Not Active
IC50 [3]: Not Active
IC50 [4]: Not Active
IC50 [5]: Not Active
Ki [5]: Not Active
IC50 [6]: Not Active
Ki [6]: Not Active
IC50 [7]: Not Active
IC50 ([8]; jurkat): Not Active
IC50 [9]: Not Active
Ki [9]: Not Active
IC50 [10]: Not Active
Ki [10]: Not Active
IC50 [11]: Not Active
IC50 [12]: Not Active
Ki [12]: Not Active
IC50 [13]: Not Active
Ki [13]: Not Active
IC50 [14]: Not Active
Ki [14]: Not Active
IC50 (Insulin receptor): Not Active
IC50 (Melanocortin receptor 4): Not Active
IC50 [15]: Not Active
IC50 (Mu-type opioid receptor): Not Active
IC50 [16]: Not Active
IC50 [17]: Not Active

CC(=O)S[C@@H]1CC2=CC(=O)CC[C@]2(C)[C@H]2CC[C@@]3(C)[C@@H](CC[C@@]34CCC(=O)O4)[C@H]12 [SPIRONOLACTONE]
IC50 [1]: Not Active
IC50 [2]: Not Active
IC50 [3]: Not Active
IC50 [4]: Not Active
IC50 [5]: Not Active
Ki [5]: Not Active
IC50 [6]: Not Active
Ki [6]: Not Active
IC50 [7]: Not Active
IC50 ([8]; jurkat): Not Active
IC50 [9]: Not Active
Ki [9]: Not Active
IC50 [10]: Not Active
Ki [10]: Not Active
IC50 [11]: Not Active
IC50 [12]: Not Active
Ki [12]: Not Active
IC50 [13]: Not Active
Ki [13]: Not Active
IC50 [14]: Not Active
Ki [14]: Not Active
IC50 (Insulin receptor): Not Active
IC50 (Melanocortin receptor 4): Not Active
IC50 [15]: Not Active
IC50 (Mu-type opioid receptor): Not Active
IC50 [16]: Not Active
IC50 [17]: Not Active

COc1cc(C(=O)NC2CCCNC2)cc(OC)c1OC (stereo unspecified) [TROXIPIDE]
IC50 [1]: Not Active
IC50 [2]: Not Active
IC50 [3]: Not Active
IC50 [4]: Not Active
IC50 [5]: Not Active
Ki [5]: Not Active
IC50 [6]: Not Active
Ki [6]: Not Active
IC50 [7]: Not Active
IC50 ([8]; jurkat): Not Active
IC50 [9]: Not Active
Ki [9]: Not Active
IC50 [10]: Not Active
Ki [10]: Not Active
IC50 [11]: Not Active
IC50 [12]: Not Active
Ki [12]: Not Active
IC50 [13]: Not Active
Ki [13]: Not Active
IC50 [14]: Not Active
Ki [14]: Not Active
IC50 (Insulin receptor): Not Active
IC50 (Melanocortin receptor 4): Not Active
IC50 [15]: Not Active
IC50 (Mu-type opioid receptor): Not Active
IC50 [16]: Not Active
IC50 [17]: Not Active

Cc1ccc(C(=O)C(C)CN2CCCCC2)cc1 (stereo unspecified) [TOLPERISONE]
IC50 [1]: Not Active
IC50 [2]: Not Active
IC50 [3]: Not Active
IC50 [4]: Not Active
IC50 [5]: Not Active
Ki [5]: Not Active
IC50 [6]: Not Active
Ki [6]: Not Active
IC50 [7]: Not Active
IC50 ([8]; read-out: IC50): 13 nM
Ki ([8]; read-out: Ki): 5.59 nM
IC50 [9]: Not Active
Ki [9]: Not Active
IC50 [10]: Not Active
Ki [10]: Not Active
IC50 [11]: Not Active
IC50 [12]: Not Active
Ki [12]: Not Active
IC50 [13]: Not Active
Ki [13]: Not Active
IC50 [14]: Not Active
Ki [14]: Not Active
IC50 (Insulin receptor): Not Active
IC50 (Melanocortin receptor 4): Not Active
IC50 [15]: Not Active
IC50 (Mu-type opioid receptor): Not Active
IC50 [16]: Not Active
IC50 [17]: Not Active

NC(=O)c1ccccc1O [SALICYLAMIDE]
IC50 [1]: Not Active
IC50 [2]: Not Active
IC50 [3]: Not Active
IC50 [4]: Not Active
IC50 [5]: Not Active
Ki [5]: Not Active
IC50 [6]: Not Active
Ki [6]: Not Active
IC50 [7]: Not Active
IC50 ([8]; jurkat): Not Active
IC50 [9]: Not Active
Ki [9]: Not Active
IC50 [10]: Not Active
Ki [10]: Not Active
IC50 [11]: Not Active
IC50 [12]: Not Active
Ki [12]: Not Active
IC50 [13]: Not Active
Ki [13]: Not Active
IC50 [14]: Not Active
Ki [14]: Not Active
IC50 (Insulin receptor): Not Active
IC50 (Melanocortin receptor 4): Not Active
IC50 [15]: Not Active
IC50 (Mu-type opioid receptor): Not Active
IC50 [16]: Not Active
IC50 [17]: Not Active
